Reference: US20230212549A1, “COMPOUNDS COMPRISING A […] LIGAND AND USE THEREOF” (priority 2021, published 2023)
Numbered stars: 1 amine (or outer) side, 2 acyl side, 3 side chain; on linkers, the order of the positions; unused ones are H or OH. Bridge positions count the residues as written; N and C are the ends. Square brackets hold non-standard residues; d marks the D form. Peptide text beside a SMILES is read from it. * marks the point of attachment. DOTA = O=C(O)CN1CCN(CC(=O)O)CCN(CC(=O)*)CCN(CC(=O)O)CC1; Pro(trans-4-Ph) = O=C(O)[C@@H]1C[C@@H](c2ccccc2)CN1; Bip = N[C@@H](Cc1ccc(-c2ccccc2)cc1)C(=O)O; Pro(4S-NH2) = N[C@@H]1CN[C@H](C(=O)O)C1; mXylylene = c1cc(C[*:1])cc(C[*:2])c1; NMeF = CN[C@@H](Cc1ccccc1)C(=O)O; Nphe = O=C(O)CNCc1ccccc1; Hexanoyl = CCCCCC(=O)*; Aib = CC(C)(N)C(=O)O; Nlys = NCCCCNCC(=O)O; βAla = NCCC(=O)O

How the values were obtained:
[1] = biological target: T1, FAP-expressing human WI-38 fibroblasts (Homo sapiens, UniProt Q12884); assay: Competitive FACS binding assay
T1 construct: FAP-expressing human WI-38 fibroblasts (ECACC) were cultured in EMEM; host or cells: WI-38 human fibroblasts
Experimental: Cells were analyzed in an Attune NxT flow cytometer. […] […].
Cells were analyzed in an Attune NxT flow cytometer. […]

Human recombinant FAP = Human recombinant FAP (Homo sapiens, UniProt Q12884); assay: FRET-based FAP protease activity assay; assay type: biochemical; parameters: purchased R&D systems 3715-SE
[2] = pIC50 Category (Activity), FRET-based FAP protease activity assay, recombinant human FAP, 37° C.
[3] = pIC50 Category (Activity), FRET-peptide substrate, 37° C.

Human recombinant FAP, sequence (Q12884 whole entry): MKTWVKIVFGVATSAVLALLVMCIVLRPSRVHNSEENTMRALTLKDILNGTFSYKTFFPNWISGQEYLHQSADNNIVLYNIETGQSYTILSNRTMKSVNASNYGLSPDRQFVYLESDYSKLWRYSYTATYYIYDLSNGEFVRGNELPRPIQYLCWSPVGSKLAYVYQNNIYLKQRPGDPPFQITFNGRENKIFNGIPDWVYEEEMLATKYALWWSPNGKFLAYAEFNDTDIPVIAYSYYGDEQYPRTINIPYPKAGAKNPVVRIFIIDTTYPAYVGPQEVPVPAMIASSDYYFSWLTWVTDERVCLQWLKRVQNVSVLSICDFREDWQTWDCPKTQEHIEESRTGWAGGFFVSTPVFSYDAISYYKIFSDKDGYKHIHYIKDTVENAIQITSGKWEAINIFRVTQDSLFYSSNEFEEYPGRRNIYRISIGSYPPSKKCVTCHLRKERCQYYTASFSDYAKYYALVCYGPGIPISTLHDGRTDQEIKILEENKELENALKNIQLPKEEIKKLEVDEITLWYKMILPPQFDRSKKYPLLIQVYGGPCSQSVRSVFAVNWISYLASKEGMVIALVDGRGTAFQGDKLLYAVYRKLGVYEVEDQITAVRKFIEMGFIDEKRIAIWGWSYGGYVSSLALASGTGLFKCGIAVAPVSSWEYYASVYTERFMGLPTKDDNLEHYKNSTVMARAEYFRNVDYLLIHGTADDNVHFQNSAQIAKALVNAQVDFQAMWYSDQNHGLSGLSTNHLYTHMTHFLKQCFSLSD
T1 sequence (Q12884 whole entry): as above

SMILES	IC50 [1] [nM]	IC50 (Human recombinant FAP; [2]) [nM]	IC50 (Human recombinant FAP; [3]) [nM]	also measured
CCCCNC(=O)N[C@H]1CSCc2cc(CSCCNC(=O)CCC(C(=O)O)N3CCN(CC(=O)O)CCN(CC(=O)O)CC3)cc(c2)CSCC(C(=O)O)NC(=O)[C@H](Cc2ccccc2)NC(=O)[C@H](CCC(N)=O)NC(=O)[C@H]([C@@H](C)O)NC(=O)[C@@H]2CCCN2C(=O)[C@@H]2CCCN2C1=O (stereo partly drawn) [3BP-4723, nBu-CAyl-[Cys(tMeBn(NODAGA-AET))-Pro-Pro-Thr-Gln-Phe-Cys]-OH]	< 10			IC50 (Human recombinant FAP; pIC50 Category (activity), Recombinant human FAP): < 10 nM
CCCCCC(=O)N[C@H]1CSCc2cccc(c2)CSC[C@@H](C(N)=O)NC(=O)[C@H](Cc2ccc(-c3ccccc3)cc2)NC(=O)[C@H](CCC(=O)O)NC(=O)[C@H]([C@@H](C)O)NC(=O)[C@@H]2CCCN2C(=O)[C@@H]2CCCN2C1=O [3BP-3363, Hex-[Cys(3MeBn)-Pro-Pro-Thr-Glu-Bip-Cys]-NH2] (Hexanoyl-CPPTE[Bip]C-NH2; linker 1-7 via mXylylene)	> 1000	> 1000		
C[C@@H](O)[C@@H]1NC(=O)[C@@H]2CCCN2C(=O)[C@@H]2CCCN2C(=O)[C@@H](NC(=O)CCNC(=O)CN2CCN(CC(=O)O)CCN(CC(=O)O)CCN(CC(=O)O)CC2)CSCc2cccc(c2)CSC[C@@H](C(=O)N[C@@H](CC(=O)O)C(=O)N[C@@H](Cc2c[nH]cn2)C(=O)N(C)[C@@H](Cc2ccccc2)C(=O)N[C@@H](CCCNC(=N)N)C(=O)N[C@@H](CC(=O)O)C(N)=O)NC(=O)[C@H](Cc2ccccc2)NC(=O)[C@H](CCC(=O)O)NC1=O [3BP-3264, DOTA-Bal-[Cys(3MeBn)-Pro-Pro-Thr-Glu-Phe-Cys]-Asp-His-Nmf-Arg-Asp-NH2] ({DOTA-βAla}-CPPTEFCDH[NMeF]RD-NH2; linker 1-7 via mXylylene)	10 to 79.4	10 to 79.4		
CCCCCC(=O)N[C@H]1CSCc2cc(CSCCNC(=O)CCOCCOCCOCCOCCOCCOCCNC(=O)CCc3ccc(O)c(CN(CCN(CC(=O)O)Cc4cc(CCC(=O)O)ccc4O)CC(=O)O)c3)cc(c2)CSC[C@@H](C(=O)O)NC(=O)[C@H](Cc2ccccc2)NC(=O)[C@H](CCC(N)=O)NC(=O)[C@H]([C@@H](C)O)NC(=O)[C@@H]2CCCN2C(=O)[C@@H]2CCCN2C1=O [3BP-4383, Hex-[Cys(tMeBn(HBED-PEG6-AET))-Pro-Pro-Thr-Gln-Phe-Cys]-OH]	10 to 79.4		10 to 79.4	
CCCCNC(=O)N[C@H]1CSCc2cc(CSCCNC(=O)CCP(=O)(O)CN3CCN(CP(=O)(O)CO)CCN(CP(=O)(O)CO)CC3)cc(c2)CSC[C@@H](C(=O)O)NC(=O)[C@H](Cc2ccccc2)NC(=O)[C@H](CCC(N)=O)NC(=O)[C@H]([C@@H](C)O)NC(=O)[C@@H]2CCCN2C(=O)[C@@H]2CCCN2C1=O [3BP-5260, nBu-CAyl-[C(tMeBn(GaNOPO-AET))-PPTQFC]-OH]				pIC50 Category (FACS) ([1]; FAP-expressing human WI-38 fibroblasts): A (pIC50 category A stands for pIC50 values >8.0); pIC50 Category (activity) (Human recombinant FAP; Recombinant human FAP): A (pIC50 category A stands for pIC50 values >8.0)
CCCCCC(=O)N[C@H]1CSCc2cc(CSCCNC(=O)CCC(=O)NCCCOCCOCCOCCCNC(=O)CCC(=O)NCCCOCCOCCOCCCNC(=O)CCC(=O)NCCCOCCOCCOCCCNC(=O)CCC(=O)NCCCOCCOCCOCCCNC(=O)CCCC[C@@H]3SC[C@@H]4NC(=O)N[C@@H]43)cc(c2)CSC[C@@H](C(=O)O)NC(=O)[C@H](Cc2ccccc2)NC(=O)[C@H](CCC(N)=O)NC(=O)[C@H]([C@@H](C)O)NC(=O)[C@@H]2CCCN2C(=O)[C@@H]2CCCN2C1=O [3BP-4170, Hex-[Cys-(tMeBn(Bio-Ttds-Ttds-Ttds-Ttds-AET))-Pro-Pro-Thr-Gln-Phe-Cys]-OH]	10 to 79.4		10 to 79.4	
C=CCOC(=O)N[C@H]1CSCc2cc(CSCCNC(=O)CN3CCN(CC(=O)O)CCN(CC(=O)O)CCN(CC(=O)O)CC3)cc(c2)CSC[C@@H](C(=O)O)NC(=O)[C@H](Cc2ccccc2)NC(=O)[C@H](CCC(N)=O)NC(=O)[C@H]([C@@H](C)O)NC(=O)[C@@H]2CCCN2C(=O)[C@@H]2CCCN2C1=O [3BP-3915, Alloc-[Cys(tMeBn(DOTA-AET))-Pro-Pro-Thr-Gln-Phe-Cys]-OH]	10 to 79.4		10 to 79.4	
CCCCCC(=O)N[C@H]1CSCc2cccc(c2)CSC[C@@H](C(N)=O)NC(=O)[C@H](Cc2ccccc2)NC(=O)[C@H](CCC(N)=O)NC(=O)[C@H]([C@@H](C)O)NC(=O)[C@@H]2CCCN2C(=O)CN(Cc2ccccc2)C1=O [3BP-3748, Hex-[Cys(3MeBn)-Nphe-Pro-Thr-Gln-Phe-Cys]-NH2] (Hexanoyl-C[Nphe]PTQFC-NH2; linker 1-7 via mXylylene)	> 1000	> 1000		
CCCCNC(=O)N[C@H]1CSCc2cccc(c2)CSC[C@@H](C(=O)N[C@@H](CCCCNC(=O)C(CNCCN)CNCCN)CC(=O)O)NC(=O)[C@H](Cc2ccccc2)NC(=O)[C@H](CCC(N)=O)NC(=O)[C@H]([C@@H](C)O)NC(=O)[C@@H]2CCCN2C(=O)[C@@H]2CCCN2C1=O [3BP-4589, nBu-CAyl-[Cys(3MeBn)-Pro-Pro-Thr-Gln-Phe-Cys]-Bhk(N4Ac)—OH]	< 10		< 10	

More lines, main results first:

IC50 [1] [nM]	IC50 (Human recombinant FAP; [2]) [nM]	IC50 (Human recombinant FAP; [3]) [nM]	SMILES	also measured
> 1000	> 1000		CCCCCC(=O)N[C@H]1CSCc2cccc(c2)CSC[C@@H](C(N)=O)NC(=O)[C@H](Cc2ccccc2)NC(=O)[C@H](CCC(N)=O)NC(=O)[C@H]([C@@H](C)O)NC(=O)[C@@H]2CCCN2C(=O)CN(CCCCN)C1=O [3BP-3747, Hex-[Cys(3MeBn)-Nlys-Pro-Thr-Gln-Phe-Cys]-NH2] (Hexanoyl-C[Nlys]PTQFC-NH2; linker 1-7 via mXylylene)	
100 to 794		100 to 794	C[C@@H](O)[C@@H]1NC(=O)[C@@H]2CCCN2C(=O)[C@@H]2CCCN2C(=O)[C@@H](NC(=O)C2CCOC2)CSCc2cc(CSCCNC(=O)CN3CCN(CC(=O)O)CCN(CC(=O)O)CCN(CC(=O)O)CC3)cc(c2)CSC[C@@H](C(=O)O)NC(=O)[C@H](Cc2ccccc2)NC(=O)[C@H](CCC(N)=O)NC1=O (stereo partly drawn) [3BP-3919, Fur-[Cys(tMeBn(DOTA-AET))-Pro-Pro-Thr-Gln-Phe-Cys]-OH]	
> 1000	100 to 794		CCCCCC(=O)N[C@H]1CSCc2cccc(c2)CSC[C@@H](C(N)=O)NC(=O)[C@H](Cc2ccccc2)NC(=O)[C@H](CCC(=O)O)NC(=O)[C@H]([C@@H](C)O)NC(=O)[C@@H]2C[C@@H](c3ccccc3)CN2C(=O)[C@@H]2CCCN2C1=O [3BP-3353, Hex-[Cys(3MeBn)-Pro-Eay-Thr-Glu-Phe-Cys]-NH2] (Hexanoyl-CP[Pro(trans-4-Ph)]TEFC-NH2; linker 1-7 via mXylylene)	
10 to 79.4	10 to 79.4		CSCC[C@H](NC(C)=O)C(=O)N[C@H]1CSCc2cccc(c2)CSC[C@@H](C(=O)N[C@@H](CC(=O)O)C(=O)N[C@@H](Cc2c[nH]cn2)C(=O)N[C@@H](Cc2ccccc2)C(=O)N[C@@H](CCCNC(=N)N)C(=O)N[C@@H](CC(=O)O)C(N)=O)NC(=O)[C@H](Cc2ccccc2)NC(=O)[C@H](CCC(=O)O)NC(=O)[C@H]([C@@H](C)O)NC(=O)[C@@H]2CCCN2C(=O)C(C)(C)NC1=O [3BP-3204, Ac-Met-[Cys(3MeBn)-Aib-Pro-Thr-Glu-Phe-Cys]-Asp-His-Phe-Arg-Asp-NH2] (Ac-MC[Aib]PTEFCDHFRD-NH2; linker 2-8 via mXylylene)	
> 1000	> 1000		C[C@@H](O)[C@@H]1NC(=O)[C@@H]2CCCN2C(=O)[C@@H]2CCCN2C(=O)[C@@H](NC(=O)CCCCN)CSCc2cccc(c2)CSC[C@@H](C(N)=O)NC(=O)[C@H](Cc2ccccc2)NC(=O)[C@H](CCC(N)=O)NC1=O [3BP-3760, H-Ava-[Cys(3MeBn)-Pro-Pro-Thr-Gln-Phe-Cys]-NH2]	
> 1000	100 to 794		CCCCCC(=O)N[C@H]1CSCc2cccc(c2)CSC[C@@H](C(N)=O)NC(=O)[C@H](Cc2ccccc2)NC(=O)[C@H](CCC(=O)O)NC(=O)[C@H]([C@@H](C)O)NC(=O)[C@@H]2C[C@H](N)CN2C(=O)[C@@H]2CCCN2C1=O [3BP-3367, Hex-[Cys(3MeBn)-Pro-Tap-Thr-Glu-Phe-Cys]-NH2] (Hexanoyl-CP[Pro(4S-NH2)]TEFC-NH2; linker 1-7 via mXylylene)	
100 to 794		100 to 794	C[C@@H](O)[C@@H]1NC(=O)[C@@H]2CCCN2C(=O)[C@@H]2CCCN2C(=O)[C@@H](NC(=O)C2CCCCC2)CSCc2cc(CSCCNC(=O)CN3CCN(CC(=O)O)CCN(CC(=O)O)CCN(CC(=O)O)CC3)cc(c2)CSC[C@@H](C(=O)O)NC(=O)[C@H](Cc2ccccc2)NC(=O)[C@H](CCC(N)=O)NC1=O [3BP-3908, Chex-[Cys(tMeBn(DOTA-AET))-Pro-Pro-Thr-Gln-Phe-Cys]-OH]	
10 to 79.4		10 to 79.4	C[C@@H](O)[C@@H]1NC(=O)[C@@H]2CCCN2C(=O)[C@@H]2CCCN2C(=O)[C@@H](NC(=O)[C@H]2CCCO2)CSCc2cc(CSCCNC(=O)CN3CCN(CC(=O)O)CCN(CC(=O)O)CCN(CC(=O)O)CC3)cc(c2)CSC[C@@H](C(=O)O)NC(=O)[C@H](Cc2ccccc2)NC(=O)[C@H](CCC(N)=O)NC1=O [3BP-3911, Rth-[Cys(tMeBn(DOTA-AET))-Pro-Pro-Thr-Gln-Phe-Cys]-OH]	
10 to 79.4		10 to 79.4	CCCC[C@H](NC(=O)CCC(=O)NCCCOCCOCCOCCCNC(=O)CC[C@H](NC(=O)C(CNCCN)CNCCN)C(=O)O)C(=O)N[C@H]1CSCc2cccc(c2)CSC[C@@H](C(=O)O)NC(=O)[C@H](Cc2ccccc2)NC(=O)[C@H](CCC(N)=O)NC(=O)[C@H]([C@@H](C)O)NC(=O)[C@@H]2CCCN2C(=O)[C@@H]2CCCN2C1=O [3BP-4245, N4Ac-gGlu-Ttds-Nle-[Cys-(3MeBn)-Pro-Pro-Thr-Gln-Phe-Cys]-OH]	
< 10	< 10		CCCCCC(=O)N[C@H]1CSCc2cccc(c2)CSC[C@@H](C(=O)N[C@@H](CC(=O)O)C(=O)N[C@@H](CCCNC(=N)N)C(N)=O)NC(=O)[C@H](Cc2ccccc2)NC(=O)[C@H](CCC(=O)O)NC(=O)[C@H]([C@@H](C)O)NC(=O)[C@@H]2CCCN2C(=O)[C@@H]2CCCN2C1=O [3BP-3299, Hex-[Cys(3MeBn)-Pro-Pro-Thr-Glu-Phe-Cys]-Asp-Arg-NH2] (Hexanoyl-CPPTEFCDR-NH2; linker 1-7 via mXylylene)	
